Results on seven compounds are retold here after article PMC7765948, “Spadin Modulates Astrocytic Passive Conductance via Inhibition of TWIK-1/TREK-1 Heterodimeric Channels” (International Journal of Molecular Sciences, 2020).

The subject of one assay is TREK-1. The settings on record: cited from earlier work; for reduction of TREK-1 activity: antidepressants. How it is done: (§1) Because of the typical linear I–V relationship of astrocytic passive conductance, it has been speculated that astrocytic passive conductance is carried by non-voltage-gated K^+ channels.
Assay [1] concerns astrocytic passive conductance in mouse hippocampal slices. Description: Whole-cell patch clamp of astrocytic passive conductance in hippocampal slices. It counts as cell-based, mouse (C57BL/6). The settings on record: quinidine 200 μM versus spadin 10 μM. How it is done: Lentiviruses were injected into hippocampal CA1 region (AP: 0.17, ML: 0.17, DV: 0.19) of 7–8 week-old wild-type C57BL/6 mice. The virus-infected mouse brain slices (350 μm) containing the hippocampus were […]. Individual hippocampal slices were transferred to a recording chamber, which was constantly perfused with artificial cerebrospinal fluid (ACSF) recording solution containing (in mM) 130 NaCl, 24 NaHCO3, 3.5 KCl, 1.25 NaH2PO4, 1.5 CaCl2, 1.5 MgCl2, and 10 glucose saturated with 95% O2–5% CO2 at pH 7.4. Brain slices were co-loaded with SR-101 (Sigma Aldrich, St. Louis, MO, USA; 1 mM) dye to identify the location of astrocytes in the CA1 region. The slices were recovered at room temperature for at least 1 h before SR101 incubation and electrophysiological recording. […] Whole-cell patch recordings were performed on hippocampal astrocytes with a voltage-clamp configuration using an Axopatch 700B (Axon Instruments, Union City, CA, USA). All data are presented as means ± standard error of the mean (s.e.m). The significance of data for comparison was assessed by Student’s t-test (paired t-test) or one-way ANOVA followed by Turkey’s post hoc test, and significance levels are given as: n.s: not significant, * p < 0.05, ** p < 0.01, *** p < 0.001, and **** p < 0.0001. […]
A general note: Patch clamp records ionic current or voltage across a cell membrane.

The subject of a further assay is TWIK-1 (K274E). The settings on record: 100 μM quinine; cited from earlier work. How it is done:
as §1

In assay [2] the test system is astrocytic passive conductance. The settings on record: 200 μM quinine; cited from earlier work. The procedure:
as §1

The mark [3] stands for this setting: conventional K^+ channel blockers.

Like-named read-outs stand apart in the source and are kept apart here.

As to `Nc1ccncn1` [4-aminopyrimidine], the TREK-1 channel activity result with TREK-1 (setting [3]) was “not”.

For `CCCCC/C=C\C/C=C\C/C=C\C/C=C\CCCC(=O)O` [AA, arachidonic acid], the TREK-1 channel activation entry with TREK-1 was “activated”.

For `CNCCC(Oc1ccc(C(F)(F)F)cc1)c1ccccc1` (centres unmarked) [Fluoxetine], the “reduction of TREK-1 activity” value with TREK-1 is “effective in the reduction of TREK-1 activity”.

On to `Fc1ccc([C@@H]2CCNC[C@H]2COc2ccc3c(c2)OCO3)cc1` [paroxetine], for which the “reduction of TREK-1 activity” value in the assay on TREK-1 is “effective in the reduction of TREK-1 activity”.

Turning to `C=C[C@H]1C[N@@]2CC[C@H]1C[C@@H]2[C@@H](O)c1ccnc2ccc(OC)cc12` [quinidine], the TREK-1 channel activity result with TREK-1 (high-dose quinine or quinidine) is “affected”. Besides, in assay [1], the “concentration required for similar inhibition of passive conductance” value is listed as “required at a much higher concentration than spadin”.

Turning to `C=C[C@H]1C[N@@]2CC[C@H]1C[C@H]2[C@H](O)c1ccnc2ccc(OC)cc12` [quinine], the “cloned TWIK-1 (K274E) current” value in the assay on TWIK-1 (K274E) was “potently decreases”. The “inhibition of astrocytic passive conductance” value in assay [2] was 58%. Also, the “cloned TREK-1 current” value with TREK-1 (100 μM quinine) was “potently decreases”. The TREK-1 channel activity entry in the assay with TREK-1 (high-dose quinine or quinidine) is “affected”.

Consider `CC[N+](CC)(CC)CC` [tetraethylammonium], for which the TREK-1 channel activity result in the assay on TREK-1 (setting [3]) is “not”.
